Series [1] concerns DMPK. The experiment in a line: DMPK expression in RD cells treated with free or transfected DMPK-targeting oligonucleotides. Format: cell-based. The settings on record: free (gymnotic) or transfected, 3 days. How it is done: The duration of treatment was 3 days. DMPK-targeting oligonucleotides were delivered to the cells as free oligonucleotides (gymnotic uptake, “free”) or with transfection reagent (“trans”).
DMPK-targeting oligonucleotides (e.g., ASO) were tested in rhabdomyosarcoma (RD) cells for knockdown of DMPK transcript expression. RD cells were cultured in a growth medium of DMEM with glutamine, supplemented with 10% FBS and penicillin/streptomycin until nearly confluent. Cells were then seeded into a 96 well plate at 20K cells per well and were allowed to recover for 24 hours. Cells were then treated with free DMPK-targeting oligonucleotides or by transfection of the oligonucleotides using 0.3 μL per well of Lipofectamine MessengerMAX transfection reagent. After 3 days, total RNA was collected from cells, cDNA was synthesized and DPMK expression was measured by qPCR.

In series [2] the test system is DMPK. The experiment in a line: Dose response of antisense oligonucleotides in DMPK knockdown in NHP myotubes. The class given is cell-based, non-human primate. The source says: FIGS. 19A-19B depict non-limiting schematics showing the dose response of selected antisense oligonucleotides in DMPK knockdown in non-human primate (NHP) DM1 myotubes. Control DMPK-ASO was used as control.
(§1) The antisense oligonucleotides listed in Table 11 were further assessed to identify oligos that are safe in vivo (e.g., as indicated by low immunogenicity as measured by cytokine induction), and further based on manufacturability and secondary structure considerations. Three antisense oligonucleotides from Table 11, […] (SEQ ID NO: 310, DMPK-ASO-1), […] (SEQ ID NO: 320, DMPK-ASO-2), and […] (SEQ ID NO: 278, DMPK-ASO-3) were selected. These oligonucleotides were then further evaluated for their ability to reduce DMPK expression in DM1 myotubes and NHP myotubes in a dose-responsive manner. The tool compound (control DMPK-ASO) was used as control.

The subject of series [3] is DMPK. The experiment in a line: Dose response of antisense oligonucleotides in DMPK knockdown in human DM1 myotubes. The class given is cell-based.
Excerpt: FIGS. 18A-18C depict non-limiting schematics showing the dose response of selected antisense oligonucleotides in DMPK knockdown in human DM1 myotubes. ControlDMPK-ASO was used as control. […] Statistical analysis: One-way ANOVA with Tukey's HSD post-hoc test vs. control DMPK-ASO treatment; *p<0.05, **p<0.01, ***p<0.001, ****p<0.0001.
as §1

A further series deals with C2C12 murine myotubes. As to conditions: in vitro, phage display; cited from earlier work.
For the next series, the system named is mouse muscle tissue. As to conditions: cited from earlier work.
The test system of series [4] is DMPK. The experiment in a line: DMPK knockdown by transfected antisense oligonucleotides in DM1 C15 myotubes at 0.5 nM and 50 nM. Format: cell-based. As to conditions: 72 hours, qPCR; for Percent DMPK Reduction: relative to vehicle control; for Normalized DMPK Remaining: relative to vehicle control = 1.00. The method, boiled down: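 Seven-day-differentiated DM1 C15 myotubes transfected (Lipofectamine MessengerMax) with each oligonucleotide at 0.5 nM or 50 nM final, biological triplicates. After 72 h, DMPK mRNA quantified by qPCR, expressed relative to vehicle-only transfection set to 1.00.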

In series [5] the test system is DMPK. The experiment in a line: Dose-responsive DMPK reduction in DM1 C15 myotubes (EC-50). As to conditions: DM1 C15 differentiated myotubes, 72 hours; for EC50: transfection with Lipofectamine MessengerMax, 0.046-100 nM; for Percent DMPK reduction at 100 nM: transfection. Format: cell-based. The protocol:
Eighteen oligonucleotides from Example 7 were selected to be evaluated for their ability to reduce DMPK expression in a dose-responsive manner. DM1 C15 myoblasts were prepared as in Example 7 to yield differentiated myotubes in 96-well microplates. After seven days of differentiation, cells were transfected with individual oligonucleotides using Lipofectamine MessengerMax. Each oligonucleotide was tested in triplicate at concentrations of 0.046 nM, 0.137 nM, 0.412 nM, 1.235 nM, 3.704 nM, 11.11 nM, 33.33 nM, and 100 nM by 3-fold serial dilutions using 0.3 μL of Lipofectamine MessengerMax per well.
Following addition of oligonucleotide, cells were incubated for 72 hours prior to harvesting for total RNA. cDNA was synthesized from the total RNA extracts and qPCR was performed to determine expression levels of DMPK using a commercially available Taqman probeset in technical quadruplicate. All qPCR data were analyzed using a traditional ΔΔCT method and were normalized to a plate-based negative control that comprised of cells treated with vehicle control (0.3 μL/well Lipofectamine MessengerMax without any oligonucleotide). Data for each oligonucleotide to was fit to sigmoidal curve in order to determine an effective concentration of each oligonucleotide that provided a half-maximal response (EC-50).

Broadly, the EC50 is the concentration that produces a half-maximal response. Higher therefore signals a less potent agent.

Consider “CCAUCUCGGCCGGAAUCCGC (chemistry not given here) [SEQ ID NO: 278, DMPK-targeting antisense oligonucleotide]”, for which the “DMPK expression level relative to PBS-treated cells” value in the series with DMPK [1] was “reduced”. In the series on DMPK [2], the “DMPK knockdown in NHP myotubes” value was “dose-dependently reducing DMPK”. Also, the “DMPK knockdown in DM1 myotubes” value in the series with DMPK [3] is recorded as “dose-dependently reducing DMPK”.
“ASSLNIA [muscle-specific heptapeptide identified by phage display]”: the “binding to C2C12 cells” value in the series on C2C12 murine myotubes was “bound to C2C12 murine myotubes in vitro”. In addition, the “specificity for binding to heart and skeletal muscle tissue” value in the series with mouse muscle tissue (after intravenous injection in mice, reduced binding to liver, kidney, and brain) is “improved specificity for binding to heart and skeletal muscle tissue”. The “binding to mouse muscle tissue” value in the series with mouse muscle tissue (in vivo) is listed as “bound to mouse muscle tissue in vivo”.
As for “CCCAGCGCCCACCAGUCACA (chemistry not given here) [SEQ ID NO: 320, DMPK-targeting antisense oligonucleotide]”, the “DMPK expression level relative to PBS-treated cells” value in the series with DMPK [1] was “reduced”. The “DMPK knockdown in NHP myotubes” value with DMPK [2] is recorded as “dose-dependently reducing DMPK”. Further, the “DMPK knockdown in DM1 myotubes” value in the series with DMPK [3] was “dose-dependently reducing DMPK”.
Consider “GCGUAGAAGGGCGUCUGCCC (chemistry not given here) [SEQ ID NO: 310, DMPK-targeting antisense oligonucleotide]”, for which, in the series on DMPK [1], the “DMPK expression level relative to PBS-treated cells” value was “reduced”. The “DMPK knockdown in NHP myotubes” value in the series on DMPK [2] is listed as “dose-dependently reducing DMPK”. The “DMPK knockdown in DM1 myotubes” value in the series with DMPK [3] was “dose-dependently reducing DMPK”.
Consider “SKTFNTHPQSTP [12 amino acid muscle-targeting peptide identified by phage display]”, for which the “binding to C2C12 cells” value in the series with C2C12 murine myotubes is “improved binding to C2C12 cells relative to the ASSLNIA”.
Consider “278 (CCAUCUCGGCCGGAAUCCGC; chemistry not given here) [compound 278]”, for which, in the series with DMPK [4] (0.5 nM oligonucleotide), the “Percent DMPK Reduction” value came out at 20.50% and the “Normalized DMPK Remaining” value is 0.79. Also, in the series on DMPK [4] (50 nM oligonucleotide), the “Percent DMPK Reduction” value was determined as 59.76% and the “Normalized DMPK Remaining” value is 0.40. Besides, in the series with DMPK [5], a half-maximal response (EC50) required 0.44 nM and the “Percent DMPK reduction at 100 nM” value amounted to 95.42%.
In the case of “301 (UGUUGUCGGGUUUGAUGUCC; chemistry not given here) [compound 301]”, in the series with DMPK [4] (0.5 nM oligonucleotide), the “Percent DMPK Reduction” value is on record as 21.00% and the “Normalized DMPK Remaining” value came to 0.79. In the series with DMPK [4] (50 nM oligonucleotide), the “Percent DMPK Reduction” value is recorded as 42.19% and the “Normalized DMPK Remaining” value amounted to 0.58. In addition, in the series with DMPK [5], the EC50 was 0.21 nM and the “Percent DMPK reduction at 100 nM” value was found to be 93.95%.
Take “316 (AGCAGGAUGUUGUCGGGUUU; chemistry not given here) [compound 316]”: in the series on DMPK [4] (0.5 nM oligonucleotide), the “Percent DMPK Reduction” value was 41.05% and the “Normalized DMPK Remaining” value amounted to 0.59. Also, in the series on DMPK [4] (50 nM oligonucleotide), the “Percent DMPK Reduction” value was determined as 74.02% and the “Normalized DMPK Remaining” value was found to be 0.26. In the series with DMPK [5], the EC50 amounted to 0.227 nM and the “Percent DMPK reduction at 100 nM” value worked out at 85.81%.
Turning to “257 (CAUGGCAUACACCUGGCCCG; chemistry not given here) [compound 257]”, in the series on DMPK [4] (0.5 nM oligonucleotide), the “Percent DMPK Reduction” value was 31.63% and the “Normalized DMPK Remaining” value turned out to be 0.68. In the series on DMPK [4] (50 nM oligonucleotide), the “Percent DMPK Reduction” value is 74.03% and the “Normalized DMPK Remaining” value stood at 0.26. Moreover, in the series on DMPK [5], the concentration giving a half-maximal response (EC50) amounted to 0.42 nM and the “Percent DMPK reduction at 100 nM” value is 75.28%.
Turning to “288 (CAGGGACAGCCGCUGGAACU; chemistry not given here) [compound 288]”, in the series with DMPK [4] (0.5 nM oligonucleotide), the “Percent DMPK Reduction” value stood at 32.09% and the “Normalized DMPK Remaining” value stood at 0.68. Also, in the series with DMPK [4] (50 nM oligonucleotide), the “Percent DMPK Reduction” value worked out at 58.84% and the “Normalized DMPK Remaining” value amounted to 0.41. Also, in the series on DMPK [5], the EC50 amounted to 6.04 nM and the “Percent DMPK reduction at 100 nM” value worked out at 90.59%.
